Tested on: HUVEC
Assay: HUVEC + albumin proliferation
Assay type: cell-based
Conditions: Homo sapiens, 72 h, with albumin
Procedure: This assay determines the ability of a test compound to inhibit the growth factor-stimulated proliferation of human umbilical vein endothelial cells (“HUVEC”). HUVEC cells (passage 3–4, Clonetics, Corp.) were thawed into EGM2 culture medium (Clonetics Corp) in T75 flasks. Fresh EGM2 medium was added to the flasks 24 hours later. Four or five days later, cells were exposed to another culture medium (F12K medium supplemented with 10% fetal bovine serum (FBS), 60 μg/mL endothelial cell growth supplement (ECGS), and 0.1 mg/mL heparin). Exponentially-growing HUVEC cells were used in experiments thereafter. Ten to twelve thousand HUVEC cells were plated in 96-well dishes in 100 μl of rich, culture medium (described above). The cells were allowed to attach for 24 hours in this medium. The medium was then removed by aspiration and 105 μl of starvation media (F12K+1% FBS) was added to each well. After 24 hours, 15 μl of test agent dissolved in 1% DMSO in starvation medium or this vehicle alone was added into each treatment well; the final DMSO concentration was 0.1%. One hour later, 30 μl of VEGF (30 ng/mL) in starvation media was added to all wells except those containing untreated controls; the final VEGF concentration was 6 ng/mL. Cellular proliferation was quantified 72 hours later by MTT dye reduction, at which time cells were exposed for 4 hours MTT (Promega Corp.). Dye reduction was stopped by addition of a stop solution (Promega Corp.) and absorbance at 595λ was determined on a 96-well spectrophotometer plate reader.
IC50 values were calculated by curve-fitting the response of A^595 to various concentrations of the test agent; typically, seven concentrations separated by 0.5 log were employed, with triplicate wells at each concentration. For screening compound library plates, one or two concentrations (one well per concentration) were employed, and the % inhibition was calculated by the following formula: % inhibition=(control−test)[…](control−starvation) where

For `O=C(NC1CC1)c1ccccc1Nc1ccc2c(/C=C/c3ccccn3)n[nH]c2c1` [Example 3(d), N-Cyclopropyl-2-[3-((E)-2-pyridin-2-yl-vinyl)-1H-indazol-6-ylamino]-benzamide], which IC50 is on record?
The IC50 was 7.5 nM.

Reference: patent US7053107B2, “Indazole compounds and pharmaceutical compositions for inhibiting protein kinases, and methods for their use” (Agouron Pharmaceuticals, Inc., priority 2002, dated 2006)
